The values that follow come from patent US11999732B2, “P2X3 receptor antagonists” (RECORDATI INDUSTRIA CHIMICA E FARMACEUTICA SPA, priority 2018, dated 2024).

The target of one test is T1, human P2X3 receptor (Homo sapiens, UniProt P56373).
T1 construct: expressed in transfected cells; host or cells: CHO-K1
T1 sequence (P56373 1-397): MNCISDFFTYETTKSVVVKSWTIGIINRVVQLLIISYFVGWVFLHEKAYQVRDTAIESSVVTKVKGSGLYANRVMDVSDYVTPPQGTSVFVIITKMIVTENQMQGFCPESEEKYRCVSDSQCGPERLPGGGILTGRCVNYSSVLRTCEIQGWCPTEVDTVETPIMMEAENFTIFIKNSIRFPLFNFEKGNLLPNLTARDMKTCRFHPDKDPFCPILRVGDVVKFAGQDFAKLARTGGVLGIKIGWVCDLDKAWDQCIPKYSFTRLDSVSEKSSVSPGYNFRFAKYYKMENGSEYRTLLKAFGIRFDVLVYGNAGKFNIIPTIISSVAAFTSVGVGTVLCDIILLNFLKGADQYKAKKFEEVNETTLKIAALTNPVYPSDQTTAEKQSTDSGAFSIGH
As to the kind of experiment: Calcium luminescence (photoprotein) assay in CHO-K1 cells co-expressing human P2X3 receptor, α,β-Met-ATP stimulation, FLEXSTATION readout. The conditions noted are these: Table 6; human P2X3 receptor antagonist activity, CHO-K1 cells, α,β-Met-ATP; read-out: h-P2X3 IC50. In kind it is cell-based. The procedure, abridged:
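CHO-K1 cells co-expressing human P2X3 and a Ca2+-sensitive photoprotein, loaded with coelenterazine in Tyrode's buffer (pH 7.4) for 4 h at 37 °C. Compounds injected 4 min before α,β-Met-ATP stimulation; luminescence recorded, IC50 and pseudo-Hill slope from nonlinear regression of inhibition curves.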
As a reminder, the IC50 is the concentration needed to halve the response being measured. For `COc1cc(CN2C(=O)N3C(=NCC3CC(C)C)c3ncc(N4CCOCC4)cc32)cc(OC)c1` (stereo not shown) [Example 35, 6-(3,5-dimethoxybenzyl)-3-(2-methylpropyl)-8-(morpholin-4-yl)-2,6-dihydroimidazo[1,2-c]pyrido[2,3-e]pyrimidin-5(3H)-one], the IC50 turned out to be 793 nM. In the case of `COc1cc(CN2C(=O)N3CC(C(C)C)N=C3c3ncc(C(=O)NC4CCOCC4)cc32)cc(OC)c1` (stereo not shown) [Example 58, 6-(3,5-dimethoxybenzyl)-5-oxo-2-(propan-2-yl)-n-(tetrahydro-2H-pyran-4-yl)-2,3,5,6-tetrahydroimidazo[1,2-c]pyrido[2,3-e]pyrimidine-8-carboxamide], the IC50 is 9200 nM.

As for `COc1ccc(CN2C(=O)N3C(=NC(=O)C3C(C)(C)C)c3ncc(N4CCOCC4)cc32)cc1` (stereo not shown) [Example 69, 3-tert-butyl-6-(4-methoxybenzyl)-8-(morpholin-4-yl)imidazo[1,2-c]pyrido[2,3-e]pyrimidine-2,5(3H,6H)-dione], the IC50 turned out to be 98.3 nM. For `CCC1CN2C(=O)N(Cc3ccc(Cl)cc3)c3cc(N4CCOCC4)cnc3C2=N1` (stereo not shown) [Example 50, 6-(4-chlorobenzyl)-2-ethyl-8-(morpholin-4-y1)-2,6-dihydroimidazo[1,2-c]pyrido[2,3-e]pyrimidin-5(3H)-one], the IC50 came to 280 nM. Turning to `CCC1CN=C2c3ncc(N4CCOCC4)cc3N(Cc3cc(OC)cc(OC)c3)C(=O)N21` (stereo not shown) [Example 6, 6-(3,5-dimethoxybenzyl)-3-ethyl-8-(morpholin-4-yl)-2,6-dihydroimidazo[1,2-c]pyrido[2,3-e]pyrimidin-5(3H)-one], the IC50 stood at 504 nM. As to `CCC1CN2C(=O)N(Cc3ccc(OC)cc3)c3cc(N4CC(COC)C4)cnc3C2=N1` (stereo not shown) [Example 39, 2-ethyl-6-(4-methoxybenzyl)-8-[3-(methoxymethyl)azetidin-1-yl]-2,6-dihydroimidazo[1,2-c]pyrido[2,3-e]pyrimidin-5(3H)-one], the IC50 amounted to 5140 nM. For `COc1cc(CN2C(=O)N3C(=NCC3c3ccccc3)c3ncc(N4CCOCC4)cc32)cc(OC)c1` (stereo not shown) [Example 47, 6-(3,5-dimethoxybenzyl)-8-(morpholin-4-yl)-3-phenyl-2,6-dihydroimidazo[1,2-c]pyrido[2,3-e]pyrimidin-5(3H)-one], the half-maximal inhibitory concentration (IC50) stood at 199 nM. The same measure, in the same setting: as for `COc1ccc(CN2C(=O)N3CC(C(C)C)N=C3c3ncc(N4CCOCC4)cc32)cc1` (stereo not shown) [Example 18, 6-(4-methoxybenzyl)-8-(morpholin-4-yl)-2-(propan-2-yl)-2,6-dihydroimidazo[1,2-c]pyrido[2,3-e]pyrimidin-5(3H)-one], the figure is 301 nM; as for `COc1ccc(CN2C(=O)N3CC(C4CCCCC4)N=C3c3ncc(N4CCOCC4)cc32)cc1` (stereo not shown) [Example 23, 2-cyclohexyl-6-(4-methoxybenzyl)-8-(morpholin-4-yl)-2,6-dihydroimidazo[1,2-c]pyrido[2,3-e]pyrimidin-5(3H)-one], 506 nM. The same measure, in the same setting: as for `CC(C)CC1CN=C2c3ncc(N4CCOCC4)cc3N(Cc3ccc(Cl)cc3)C(=O)N21` (stereo not shown) [Example 31, 6-(4-chlorobenzyl)-3-(2-methylpropyl)-8-(morpholin-4-yl)-2,6-dihydroimidazo[1,2-c]pyrido[2,3-e]pyrimidin-5(3H)-one], the figure is 229 nM. Take `O=C1N2CC(C3CCCCC3)N=C2c2ncc(N3CCOCC3)cc2N1Cc1ccc(Cl)cc1` (stereo not shown) [Example 25, 6-(4-chlorobenzyl)-2-cyclohexyl-8-(morpholin-4-yl)-2,6-dihydroimidazo[1,2-c]pyrido[2,3-e]pyrimidin-5(3H)-one]: the IC50 came to 389 nM.

Staying with this test, now noted: Table 7; human P2X3 receptor antagonist activity, CHO-K1 cells, α,β-Met-ATP; read-out: h-P2X3 IC50.
Consider `CCc1nc2c3ncc(NCC4COC4)cc3n(Cc3cc(OC)cc(OC)c3)c(=O)n2c1C` [Example 76, 6-(3,5-dimethoxybenzyl)-2-ethyl-3-methyl-8-{[(oxetan-3-yl)methyl]amino}imidazo[1,2-c]pyrido[2,3-e]pyrimidin-5(6H)-one], for which the IC50 turned out to be 381 nM. On to `Cc1c(C(C)C)nc2c3ncc(N4CC5(COC5)C4)cc3n(Cc3ccc(Cl)cc3)c(=O)n12` [Example 91, 6-(4-chlorobenzyl)-3-methyl-8-(2-oxa-6-azaspiro[3.3]heptan-6-yl)-2-(propan-2-yl)imidazo[1,2-c]pyrido[2,3-e]pyrimidin-5(6H)-one], for which the IC50 stood at 507 nM. Turning to `CC(C)Cc1nnc2c3ncc(N4CCOCC4)cc3n(Cc3ccc(Cl)cc3)c(=O)n12` [Example 108, 6-(4-chlorobenzyl)-3-(2-methylpropyl)-8-(morpholin-4-yl)pyrido[2,3-e][1,2,4]triazolo[4,3-c]pyrimidin-5(6H)-one], the IC50 is 175 nM. As for `COc1cc(Cn2c(=O)n3cc(CC(C)C)nc3c3ncc(N4CCOCC4)cc32)cc(OC)c1` [Example 74, 6-(3,5-dimethoxybenzyl)-2-(2-methylpropyl)-8-(morpholin-4-yl)imidazo[1,2-c]pyrido[2,3-e]pyrimidin-5(6H)-one], the IC50 was found to be 416 nM. Take `COc1ccc(Cn2c(=O)n3c(C(C)C)nnc3c3ncc(N4CCOCC4)cc32)cc1` [Example 97, 6-(4-methoxybenzyl)-8-(morpholin-4-yl)-3-(propan-2-yl)pyrido[2,3-e][1,2,4]triazolo[4,3-c]pyrimidin-5(6H)-one]: the IC50 was 394 nM. With `CC(C)Cc1cn2c(=O)n(Cc3c(F)cc(Cl)cc3F)c3cc(N4CCOCC4)cnc3c2n1` [Example 75, 6-(4-chloro-2,6-difluorobenzyl)-2-(2-methylpropyl)-8-(morpholin-4-yl)imidazo[1,2-c]pyrido[2,3-e]pyrimidin-5(6H)-one], the IC50 worked out at 3510 nM. The same measure, in the same setting: as for `COc1cc(Cn2c(=O)n3c(C)c(C)nc3c3ncc(N4CC5(COC5)C4)cc32)cc(OC)c1` [Example 81, 6-(3,5-dimethoxybenzyl)-2,3-dimethyl-8-(2-oxa-6-azaspiro[3.3]heptan-6-yl)imidazo[1,2-c]pyrido[2,3-e]pyrimidin-5(6H)-one], the figure is 269 nM; as for `COc1cc(Cn2c(=O)n3c(C)nnc3c3ncc(N4CCOCC4)cc32)cc(OC)c1` [Example 101, 6-(3,5-dimethoxybenzyl)-3-methyl-8-(morpholin-4-yl)pyrido[2,3-e][1,2,4]triazolo[4,3-c]pyrimidin-5(6H)-one], 2440 nM.

On to `COc1cc(Cn2c(=O)n3cc(CC(C)C)nc3c3ncc(N4CCN(C(=O)CO)CC4)cc32)cc(OC)c1` [Example 80, 6-(3,5-dimethoxybenzyl)-8-[4-(hydroxyacetyl)piperazin-1-y1]-2-(2-methylpropyl)imidazo[1,2-c]pyrido[2,3-e]pyrimidin-5(6H)-one], for which the IC50 was 1530 nM. As for `COc1ccc(Cn2c(=O)n3cc(CC(C)C)nc3c3ncc(N4CCOCC4)cc32)cc1` [Example 78, 6-(4-methoxybenzyl)-2-(2-methylpropyl)-8-(morpholin-4-yl)imidazo[1,2-c]pyrido[2,3-e]pyrimidin-5(6H)-one], the IC50 was found to be 631 nM.

Staying with this test, now noted: Table 8; human P2X3 receptor antagonist activity, CHO-K1 cells, α,β-Met-ATP; read-out: h-P2X3 IC50.
For the molecule `COc1cc(Cc2nn3c(CC(C)C)nnc3c3ncc(N4CCOCC4)cc23)cc(OC)c1` [Example 116, 6-(3,5-dimethoxybenzyl)-3-(2-methylpropyl)-8-(morpholin-4-yl)pyrido[2,3-d][1,2,4]triazolo[4,3-b]pyridazine], the IC50 came to 469 nM. Turning to `CC(C)(C)c1nnc2c3ncc(N4CCOCC4)cc3c(Cc3ccc(Cl)cc3)nn12` [Example 111, 3-tert-butyl-6-(4-chlorobenzyl)-8-(morpholin-4-yl)pyrido[2,3-d][1,2,4]triazolo[4,3-b]pyridazine], the IC50 was found to be 102 nM.

As for `COCC1CN(c2cnc3c(c2)c(Cc2ccc(Cl)cc2)nn2c(CC(C)C)nnc32)C1` [Example 128, 6-(4-chlorobenzyl)-8-[3-(methoxymethyl)azetidin-1-yl]-3-(2-methylpropyl)pyrido[2,3-d][1,2,4]triazolo[4,3-b]pyridazine], the IC50 was 576 nM.

As for `Cc1ccc(Cc2nn3c(CC4CCOCC4)nnc3c3ncc(N4CCOCC4)cc23)cc1` [Example 117, 6-(4-methylbenzyl)-8-(morpholin-4-yl)-3-(tetrahydro-2H-pyran-4-ylmethyl)pyrido[2,3-d][1,2,4]triazolo[4,3-b]pyridazine], the IC50 worked out at 197 nM.

Staying with this test, now noted: Table 9; human P2X3 receptor antagonist activity, CHO-K1 cells, α,β-Met-ATP; read-out: h-P2X3 IC50.
As to `CC1(C)CN=C2c3ncc(NCCO)cc3N(Cc3ccc(Cl)cc3)C(=O)N2C1` [Example 143, 5-(4-chlorobenzyl)-3-[(2-hydroxyethyl)amino]-9,9-dimethyl-5,8,9,10-tetrahydro-6H-pyrido[2,3-e]pyrimido[1,2-c]pyrimidin-6-one], the IC50 amounted to 2260 nM.

Take `CCC1CCN2C(=O)N(Cc3ccc(Cl)cc3)c3cc(N4CCOCC4)cnc3C2=N1` (stereo not shown) [Example 154, 5-(4-chlorobenzyl)-10-ethyl-3-(morpholin-4-yl)-5,8,9,10-tetrahydro-6H-pyrido[2,3-e]pyrimido[1,2-c]pyrimidin-6-one]: the IC50 is 1050 nM. The same measure, in the same setting: under `O=c1n(Cc2ccc(Cl)cc2)c2cc(N3CCOCC3)cnc2c2nnc(COC3CCOCC3)n12` [Example 188, 6-(4-chlorobenzyl)-8-(morpholin-4-yl)-3-[(tetrahydro-2H-pyran-4-yloxy)methyl]pyrido[2,3-e][1,2,4]triazolo[4,3-c]pyrimidin-5(6H)-one] stands 528 nM.
